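These data come from cells grown in 96-well plates and exposed to compound for 48 hours at five concentrations. GI50 is the concentration that inhibits growth by half.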 The source made the active and inactive calls. Rule as the data show it: active = GI50 up to about 1.1 µM and inactive = higher.
Columns and labels:
Test in all cases: growth of human tumour cells (NCI), 48 h
CAKI-1 = system: CAKI-1
LOX IMVI = system: LOX IMVI
HT-29 = system: HT-29
HL-60 = system: HL-60
HOP-62 = system: HOP-62
TK-10 = system: TK-10
NCI-H23 = system: NCI-H23
RPMI-8226 = system: RPMI-8226
IGROV-1 = system: IGROV-1
OVCAR-8 = system: OVCAR-8
SK-OV-3 = system: SK-OV-3
EKVX = system: EKVX
HCC 2998 = system: HCC 2998
T47D = system: T47D
UACC-62 = system: UACC-62
MDA-N = system: MDA-N
OVCAR-5 = system: OVCAR-5
KM12 = system: KM12
OVCAR-3 = system: OVCAR-3
786-0 = system: 786-0

Row | Structure (SMILES) | GI50 (CAKI-1) | GI50 (LOX IMVI) | GI50 (HT-29) | GI50 (HL-60) | GI50 (HOP-62) | GI50 (TK-10) | GI50 (NCI-H23) | GI50 (RPMI-8226) | GI50 (IGROV-1) | GI50 (OVCAR-8) | GI50 (SK-OV-3) | GI50 (EKVX) | GI50 (HCC 2998) | GI50 (T47D) | GI50 (UACC-62) | GI50 (MDA-N) | GI50 (OVCAR-5) | GI50 (KM12) | GI50 (OVCAR-3) | GI50 (786-0)
1 | CC(C)[C@@H]1CC[C@@H](C)C[C@H]1OC(=O)/C=C1\C(C(=O)O[C@@H]2C[C@H](C)CC[C@H]2C(C)C)[C@H]2C=C[C@@H]1O2 (stereo not given in full) | > 100 µM (inactive) | 34.1 µM (inactive) | 33.4 µM (inactive) | 22.9 µM (inactive) | > 100 µM (inactive) | > 100 µM (inactive) | 36.7 µM (inactive) | 56.1 µM (inactive) | > 100 µM (inactive) | 57.7 µM (inactive) | > 100 µM (inactive) | 63.4 µM (inactive) | 29.1 µM (inactive) | 75.2 µM (inactive) | 92.5 µM (inactive) | 83.6 µM (inactive) | > 100 µM (inactive) | 87.7 µM (inactive) | 38.3 µM (inactive) | 66.5 µM (inactive)
2 | Cc1sc2nc(-c3ccc(Cl)c([N+](=O)[O-])c3)c(/C=N/NC(=N)N)n2c1C | 1.62 µM (inactive) | 0.585 µM (active) | 1.35 µM (inactive) | 1.71 µM (inactive) | 0.471 µM (active) | 1.75 µM (inactive) | 1.73 µM (inactive) | 1.35 µM (inactive) | 1.09 µM (active) | 0.824 µM (active) | 1.75 µM (inactive) | 1.69 µM (inactive) | 1.1 µM (active) | 1.46 µM (inactive) | 1.79 µM (inactive) | 0.893 µM (active) | 1.58 µM (inactive) | 0.45 µM (active) | 1.69 µM (inactive) | 0.684 µM (active)
3 | CC1C(c2ccccc2O)c2cc3c(cc2OC1N1CCOCC1)OCO3 (stereo not given) | 25.1 µM (inactive) | 18 µM (inactive) | 26.9 µM (inactive) | 20 µM (inactive) | 18.5 µM (inactive) | 30.3 µM (inactive) | 32.4 µM (inactive) | 15.5 µM (inactive) | 27.7 µM (inactive) | 32.1 µM (inactive) | 40.1 µM (inactive) | 34.3 µM (inactive) | 25 µM (inactive) | 31.7 µM (inactive) | 26.2 µM (inactive) | 35.2 µM (inactive) | 47.5 µM (inactive) | 27.3 µM (inactive) | 22.6 µM (inactive) | 34.7 µM (inactive)
4 | Cc1ccc(N/N=C2\C3=C(CCC(C)(C)O3)C(=O)c3ccccc32)cc1 | 28.2 µM (inactive) | 10.3 µM (inactive) | 18.8 µM (inactive) | 15.2 µM (inactive) | 20.6 µM (inactive) | 26.8 µM (inactive) | 10.8 µM (inactive) | 26.5 µM (inactive) | 29.1 µM (inactive) | 34.4 µM (inactive) | > 100 µM (inactive) | 25.5 µM (inactive) | 19.7 µM (inactive) | 18.2 µM (inactive) | 14.9 µM (inactive) | 4.43 µM (inactive) | 18.4 µM (inactive) | 21.8 µM (inactive) | 24.2 µM (inactive) | 28 µM (inactive)
5 | CC1=CCS(=O)(=O)C1C(O)C1=C(C)CCCC1(C)C (stereo not given) | > 100 µM (inactive) | 62.2 µM (inactive) | > 100 µM (inactive) | 35.3 µM (inactive) | > 100 µM (inactive) | > 100 µM (inactive) | > 100 µM (inactive) | 14.3 µM (inactive) | > 100 µM (inactive) | > 100 µM (inactive) | > 100 µM (inactive) | > 100 µM (inactive) | > 100 µM (inactive) | 45.7 µM (inactive) | 87.1 µM (inactive) | 63.1 µM (inactive) | > 100 µM (inactive) | 59.7 µM (inactive) | 99.8 µM (inactive) | > 100 µM (inactive)
6 | COC1C(=O)N(SC)C1c1ccccc1Cl (stereo not given) | 80.5 µM (inactive) | 42.2 µM (inactive) | 20.3 µM (inactive) | 16.7 µM (inactive) | > 100 µM (inactive) | > 100 µM (inactive) | > 100 µM (inactive) | 19.6 µM (inactive) | 18.7 µM (inactive) | 19.6 µM (inactive) | > 100 µM (inactive) | 24.4 µM (inactive) | 14.7 µM (inactive) | 27.4 µM (inactive) | 54.8 µM (inactive) | 34.6 µM (inactive) | 17.8 µM (inactive) | > 100 µM (inactive) | 19.6 µM (inactive) | 18.7 µM (inactive)
7 | CC(C)=CCC[C@@H](C)C1=C(O)C(=O)C(C)=C(Nc2ccccc2I)C1=O | 12.9 µM (inactive) | 5.73 µM (inactive) | 14 µM (inactive) | 2.19 µM (inactive) | 7.59 µM (inactive) | 22.1 µM (inactive) | 6.05 µM (inactive) | 9.1 µM (inactive) | 3.41 µM (inactive) | 3.08 µM (inactive) | 18.5 µM (inactive) | 18.2 µM (inactive) | 16.6 µM (inactive) | 8.2 µM (inactive) | 9.27 µM (inactive) | 21.2 µM (inactive) | 38.2 µM (inactive) | 7.55 µM (inactive) | 4.6 µM (inactive) | 13.5 µM (inactive)
8 | CN1CCN(Cc2ccccc2)CC1CC#N (stereo not given) | > 100 µM (inactive) | > 100 µM (inactive) | > 100 µM (inactive) | > 100 µM (inactive) | > 100 µM (inactive) | > 100 µM (inactive) | > 100 µM (inactive) | > 100 µM (inactive) | > 100 µM (inactive) | > 100 µM (inactive) | > 100 µM (inactive) | > 100 µM (inactive) | > 100 µM (inactive) | > 100 µM (inactive) | > 100 µM (inactive) | > 100 µM (inactive) | > 100 µM (inactive) | > 100 µM (inactive) | > 100 µM (inactive) | > 100 µM (inactive)
9 | O=C(O)c1cc(-c2ccncc2)nc2ccccc12 | > 100 µM (inactive) | > 100 µM (inactive) | > 100 µM (inactive) | > 100 µM (inactive) | > 100 µM (inactive) | > 100 µM (inactive) | > 100 µM (inactive) | > 100 µM (inactive) | > 100 µM (inactive) | > 100 µM (inactive) | > 100 µM (inactive) | > 100 µM (inactive) | > 100 µM (inactive) | > 100 µM (inactive) | > 100 µM (inactive) | > 100 µM (inactive) | > 100 µM (inactive) | > 100 µM (inactive) | > 100 µM (inactive) | > 100 µM (inactive)
